Measured values as given in patent US20080095826A1, “Method of Increasing Peripheral Blood Lymphocytes” (priority 2006, published 2008).
Values joined by “and” are separate entries in the source; they are usually repeats but may differ in a detail not shown here. Equal values may be shown once.

Tests used:
Type in all cases: in vivo, human
[1] = system: Hospitalized elderly test subjects; test: Assessment of general condition by a nurse or care assistant (Table 2)
Method: (§1) In the test of Example 1, the test subject was assessed by a nurse or a care assistant for the improvement of the general condition between immediately before the start of the administration of the rice gruel containing a salt of glutamic acid e and 2 months thereafter. The test subjects took the Hasegawa Dementia Scale-Revised for the following 9 items immediately before the administration and 2 months thereafter.

[2] = system: Hospitalized elderly test subjects; test: Rice gruel with monosodium glutamate monohydrate fed to hospitalized elderly for 2 months; blood indices, eating ratio; details: Friedman test, p<0.05, FIG. 1
Method: Monosodium glutamate monohydrate was added to rice gruel to 0.5 wt %.
Hospitalized elderly test subjects (n=11 (2 males, 9 females), average age of 85.8±8.2, average body weight of 39.7±5.7 kg), were fed the above-mentioned rice gruel with glutamic acid 3 times a day for 2 months, establishing a continuous administration of 0.8 g on average of monosodium glutamate monohydrate per meal.
From 1 month before the start of administration to 2 months after the start of administration, the eating ratio (ratio of weight of food actually eaten to weight of provided food) was measured. Blood samples were collected early in the morning immediately before the start of administration, 1 month after the start of adminstration, 2 months after the start of administration, and 1 month after the completion of administration, and the blood indices were measured. In addition, the body weight was measured.

[3] = system: Hospitalized elderly test subjects; test: Hasegawa Dementia Scale-Revised; details: before vs 2 months after intake; particularly for the items relating to speech; FIG. 3
Method: as §1
2. what year, what month, what date, what day of the week?
5. continue to subtract 7 from 100
6. say numbers in reverse order
7. read out from memory of item 4
9. say name of vegetables.

[4] = of 11 test subjects, before vs 2 months after start of administration

In the case of N[C@@H](CCC(=O)O)C(=O)[O-].O.[Na+] [monosodium glutamate monohydrate, Monosodium glutamate monohydrate], the “mind and body conditions such as speech recovery, expression of emotion” value ([1]; almost all test subjects, 2 months after start of administration) is reported as “tendency toward improvement”, the “Brighter facial expression: number of test subjects marked ◯” value [1, 4] is reported as 8 and the “Clearer articulation: number of test subjects marked ◯” value [1, 4] is reported as 7. The “Eating by tightly holding a spoon: number of test subjects marked ◯” value [1, 4] was 2, the “Establishment of conversation: number of test subjects marked ◯” value [1, 4] was 4 and the “Eyes can be opened wide: number of test subjects marked ◯” value [1, 4] was 6. The “Louder voice: number of test subjects marked ◯” value [1, 4] was 4, the “Outward facial expression (delight, anger, sorrow and pleasure): number of test subjects marked ◯” value [1, 4] was 6 and the “Recognition of meal: number of test subjects marked ◯” value [1, 4] was 3. For the same compound, the “Recovery of memory: number of test subjects marked ◯” value [1, 4] was 2, the “Use of voice: number of test subjects marked ◯” value [1, 4] was 4 and the “1 point for ◯, total points (scale of one to ten)” value ([1]; one value per individual test subject (No. 6598, 7012, 7020, 6342, 6990, 5039, 7082, 7142, 6957, 5742, 6362), 2 months, monohydrate) was 7 points and 3 points (5×) and 10 points and 2 points (2×) and 6 points and 4 points. The peripheral lymphocyte count ([2]; 1 month after completion of administration compared to during administration) was “significantly decreased”, the peripheral lymphocyte count ([2]; during 2 months of administration, 0.8 g per meal 3 times a day) was “increased significantly” and the “Hasegawa Dementia Scale-Revised grade points” value [3] was “grade points increased”.
